Source: paper PMC3281204 (2011)

System: Modified anti-cocaine aptamer (DNA, aptamer) ATCTCGGGAGACAAGGATAAATCCTTCAATGAAGTGGGTCTCCC
Assay: fluorescence dequenching
Conditions: apparent; displaced strand 5'-[…]-3'-dabcyl quencher oligo; cocaine 0-5 mM

## COC(=O)[C@H]1[C@@H](OC(=O)c2ccccc2)C[C@@H]2CC[C@H]1N2C
  K D: 134.4 ± 7.2 µM
